Reference: ChEMBL document CHEMBL4831488, “Design, synthesis, docking, molecular dynamics and bioevaluation studies on novel N-methylpicolinamide and thienopyrimidine derivatives with inhibiting NF-κB and TAK1 activities: Cheminformatics tools RDKit applied in drug design” (Eur J Med Chem, 2021)

Columns and labels:
[1] = test system: A549; assay: Cytotoxicity against human A549 cells assessed as inhibition of cell growth measured after 72 hrs by MTT assay; format: functional, cell-based
[2] = test system: MDA-MB-231; assay: Cytotoxicity against human MDA-MB-231 cells assessed as inhibition of cell growth at 20 uM measured after 72 hrs by MTT assay relative to control; format: functional
[3] = test system: HCT-116; assay: Cytotoxicity against human HCT-116 cells assessed as inhibition of cell growth at 20 uM measured after 72 hrs by MTT assay relative to control; format: functional
[4] = test system: A549; assay: Cytotoxicity against human A549 cells assessed as inhibition of cell growth at 20 uM measured after 72 hrs by MTT assay relative to control; format: functional
[5] = target: TAK1-TAB1 fusion protein (Homo sapiens, UniProt O43318); assay: Inhibition of Tak1/Tab1 (unknown origin) assessed as inhibition of Tak1 kinase activity preincubated for 30 mins followed by addition of MBP protein and ATP and measured after 2 hrs by ADP-Glo kinase assay
Chain of TAK1-TAB1 fusion protein (O43318 whole entry, looked up, the tested form may be a part): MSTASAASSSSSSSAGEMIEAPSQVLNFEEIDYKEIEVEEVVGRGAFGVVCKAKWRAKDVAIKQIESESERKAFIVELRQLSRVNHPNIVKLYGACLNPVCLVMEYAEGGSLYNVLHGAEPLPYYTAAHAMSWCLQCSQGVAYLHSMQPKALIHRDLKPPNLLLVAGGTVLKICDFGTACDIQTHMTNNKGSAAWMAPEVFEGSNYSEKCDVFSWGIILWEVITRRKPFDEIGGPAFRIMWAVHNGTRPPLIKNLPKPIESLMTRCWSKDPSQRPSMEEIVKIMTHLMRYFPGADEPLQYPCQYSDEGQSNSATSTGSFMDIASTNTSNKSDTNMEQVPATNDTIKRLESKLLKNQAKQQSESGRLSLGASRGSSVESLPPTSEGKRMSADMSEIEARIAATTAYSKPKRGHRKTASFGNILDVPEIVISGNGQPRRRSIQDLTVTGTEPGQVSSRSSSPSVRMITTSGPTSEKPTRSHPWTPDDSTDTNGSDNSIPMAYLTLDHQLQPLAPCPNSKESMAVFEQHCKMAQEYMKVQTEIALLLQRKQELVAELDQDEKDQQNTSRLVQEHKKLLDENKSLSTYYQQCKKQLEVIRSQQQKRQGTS

[6] = test system: HCT-116; assay: Cytotoxicity against human HCT-116 cells assessed as inhibition of cell growth measured after 72 hrs by MTT assay; format: functional, cell-based; details: HCT-116, 72 h
[7] = test system: MAP3K7/TAB1 [+]; assay: Inhibition of Tak1/Tab1 (unknown origin) assessed as inhibition of Tak1 kinase activity preincubated for 30 mins followed by addition of MBP protein and ATP and measured after 2 hrs by ADP-Glo kinase assay
[8] = Homo sapiens, A549, 72 h, read-out: IC50

SMILES | IC50 [1, 8] [µM] | inhibition at 20 µM [2] [%] | inhibition at 20 µM [3] [%] | inhibition at 20 µM [4] [%] | IC50 [5] [µM] | IC50 [6] [µM] | IC50 ([1]; a549) | IC50 [7]
CN(c1ccc(Oc2ncnc3sccc23)cc1)c1nccc(N2CCc3ccccc32)n1 | 19.6 | 17.6 | 20 | 29.4 |  |  |  | 
c1ccc2c(c1)CCN(c1ccnc(Nc3ccc(Oc4ncnc5ccsc45)cc3)n1)C2 | 17 | 15.4 | 40.9 | 54.9 |  |  |  | 
CCN(CC)c1ccc(C(=O)Nc2ccc(Oc3ncnc4ccsc34)cc2)cc1 | 8.03 | 38.3 | 37.9 | 63.8 |  |  |  | 
CNC(=O)c1cc(Oc2ccc(Nc3nccc(N4CCc5ccccc5C4)n3)cc2)ccn1 | 3.19 | 41.2 | 31.2 | 59.6 | 1.26 | 15.8 |  | 
CN(c1ccc(Oc2ncnc3sccc23)cc1)c1nccc(N2CCc3ccccc3C2)n1 | 6.39 | 24.3 | 57.7 | 68.4 | 12 |  |  | 
CN(c1ccc(Oc2ncnc3sccc23)cc1)c1nccc(N2CCCCC2)n1 | 8.79 | 29.3 | 52.1 | 51.9 |  |  |  | 
c1cc(N2CCCCC2)nc(Nc2ccc(Oc3ncnc4ccsc34)cc2)n1 | 7.8 | 45.7 | 61.5 | 59.9 |  |  |  | 
c1ccc(CNc2ccc(Oc3ncnc4ccsc34)cc2)cc1 |  | 3.72 | -12.2 | 30.6 |  |  | Not Active | 
CNC(=O)c1cc(Oc2ccc(Nc3nccc(N4CCCC4)n3)cc2)ccn1 | 3.41 | 46.6 | 66.4 | 59.6 | 1.36 | 1.41 |  | 
CN(c1ccc(Oc2ncnc3ccsc23)cc1)c1nccc(N2CCCC2)n1 | 6.51 | 38 | 63.5 | 63.9 |  |  |  | Not Active
c1cc(N2CCOCC2)nc(Nc2ccc(Oc3ncnc4sccc34)cc2)n1 | 9.31 | 14.5 | 37.5 | 36.7 |  |  |  | 
c1cc(N2CCCC2)nc(Nc2ccc(Oc3ncnc4ccsc34)cc2)n1 |  | 14.3 | 22.2 | 23.2 |  |  | Not Active | 
c1ccc2c(c1)CCN(c1ccnc(Nc3ccc(Oc4ncnc5sccc45)cc3)n1)C2 | 6.75 | 26.8 | 18.1 | 34 | 6.87 |  |  | 
c1cc(N2CCCC2)nc(Nc2ccc(Oc3ncnc4sccc34)cc2)n1 | 8.1 | 24.7 | 54.4 | 61 |  |  |  | 
CN(c1ccc(Oc2ncnc3ccsc23)cc1)c1nccc(N2CCCCC2)n1 | 8.24 | 49.7 | 66.2 | 65.7 |  |  |  | 
c1ccc2c(c1)CCN2c1ccnc(Nc2ccc(Oc3ncnc4sccc34)cc2)n1 |  | 9.95 | -0.62 | 2.81 |  |  | Not Active | 
CN(C)c1ccc(C(=O)Nc2ccc(Oc3ncnc4ccsc34)cc2)cc1 | 20.2 | 10.4 | 53.9 | 50.8 |  |  |  | 
CN(c1ccc(Oc2ncnc3sccc23)cc1)c1nccc(N2CCCC2)n1 | 15.1 | 31 | 42.2 | 55.5 |  |  |  | 
CNC(=O)c1cc(Oc2ccc(Nc3nccc(N4CCOCC4)n3)cc2)ccn1 | 7.34 | 34.1 | 48.3 | 66.3 |  | 12.8 |  | 
c1cc(N2CCCCC2)nc(Nc2ccc(Oc3ncnc4sccc34)cc2)n1 | 4.02 | 40.4 | 66.3 | 64.8 | 2.52 |  |  | 
CN(c1ccc(Oc2ncnc3ccsc23)cc1)c1nccc(N2CCc3ccccc3C2)n1 | 16.1 | 30.2 | 58.3 | 69.9 |  |  |  | 
CN(c1ccc(Oc2ncnc3ccsc23)cc1)c1nccc(N2CCc3ccccc32)n1 | 20.5 | 38.2 | 57.8 | 58.2 |  |  |  | 
c1cc(N2CCOCC2)nc(Nc2ccc(Oc3ncnc4ccsc34)cc2)n1 | 6.86 | 23 | 53.1 | 57.9 | 15.7 |  |  | 
